Measurements: the CheMixHub viscosity set
± gives the uncertainty stated by the source.

Test: xn = mol fraction of the nth substance listed

CCC(=O)CC + ClC=C(Cl)Cl
viscosity [mPa·s], 101.33 kPa
Details | x2 = 0.1126 | x2 = 0.2042 | x2 = 0.2941 | x2 = 0.4591 | x2 = 0.5988 | x2 = 0.6807 | x2 = 0.7837 | x2 = 0.8997
298.15 K | 0.439 ± 0.006 | 0.463 ± 0.006 | 0.489 ± 0.006 | 0.532 ± 0.007 | 0.57 ± 0.007 | 0.582 ± 0.007 | 0.598 ± 0.008 | 0.614 ± 0.008
308.15 K | 0.402 ± 0.005 | 0.426 ± 0.006 | 0.449 ± 0.006 | 0.491 ± 0.006 | 0.523 ± 0.007 | 0.539 ± 0.007 | 0.558 ± 0.007 | 0.574 ± 0.007
318.15 K | 0.379 ± 0.005 | 0.401 ± 0.005 | 0.422 ± 0.006 | 0.462 ± 0.006 | 0.494 ± 0.006 | 0.508 ± 0.007 | 0.525 ± 0.007 | 0.544 ± 0.007

OCc1ccccc1 + C1COCCO1
viscosity [mPa·s], 101 kPa
Details | x1 = 0.201 | x1 = 0.2986 | x1 = 0.4001 | x1 = 0.4991 | x1 = 0.7017 | x1 = 0.9009
303.15 K | 1.398 ± 0.068 | 1.609 ± 0.078 | 1.842 ± 0.088 | 2.149 ± 0.1 | 2.975 ± 0.14 | 4.03 ± 0.19
308.15 K | 1.288 ± 0.063 | 1.456 ± 0.071 | 1.679 ± 0.081 | 1.92 ± 0.092 | 2.615 ± 0.12 | 3.54 ± 0.17
313.15 K | 1.178 ± 0.058 | 1.385 ± 0.068 | 1.553 ± 0.075 | 1.797 ± 0.086 | 2.387 ± 0.11 | 3.199 ± 0.15

OCc1ccccc1 + CCCO
viscosity [mPa·s], 101 kPa
Details | x1 = 0.0744 | x1 = 0.1531 | x1 = 0.2366 | x1 = 0.3252 | x1 = 0.4196 | x1 = 0.5203 | x1 = 0.6278 | x1 = 0.7431 | x1 = 0.8668
298.15 K | 2.038 ± 0.092 | 2.197 ± 0.098 | 2.401 ± 0.11 | 2.651 ± 0.12 | 2.932 ± 0.13 | 3.25 ± 0.14 | 3.593 ± 0.16 | 3.99 ± 0.17 | 4.433 ± 0.19
303.15 K | 1.796 ± 0.082 | 1.918 ± 0.087 | 2.083 ± 0.094 | 2.288 ± 0.1 | 2.52 ± 0.11 | 2.783 ± 0.12 | 3.071 ± 0.13 | 3.404 ± 0.15 | 3.776 ± 0.16
308.15 K | 1.587 ± 0.073 | 1.687 ± 0.077 | 1.828 ± 0.083 | 2.002 ± 0.09 | 2.201 ± 0.099 | 2.429 ± 0.11 | 2.678 ± 0.12 | 2.967 ± 0.13 | 3.292 ± 0.14
313.15 K | 1.368 ± 0.064 | 1.447 ± 0.067 | 1.562 ± 0.072 | 1.709 ± 0.078 | 1.877 ± 0.086 | 2.07 ± 0.094 | 2.282 ± 0.1 | 2.53 ± 0.11 | 2.807 ± 0.12

C1CCCC1 + CCCCCCCO
101.3 kPa
Details | viscosity [mPa·s]
298.15 K, x1 = 0.0352 | 5.482 ± 0.032
298.15 K, x1 = 0.0593 | 5.221 ± 0.031
298.15 K, x1 = 0.0988 | 4.844 ± 0.029
298.15 K, x1 = 0.1481 | 4.446 ± 0.027
298.15 K, x1 = 0.2145 | 3.924 ± 0.024
298.15 K, x1 = 0.2684 | 3.481 ± 0.022
298.15 K, x1 = 0.3065 | 3.175 ± 0.021
298.15 K, x1 = 0.3655 | 2.729 ± 0.019
298.15 K, x1 = 0.4052 | 2.452 ± 0.018
298.15 K, x1 = 0.4333 | 2.255 ± 0.017
298.15 K, x1 = 0.4668 | 2.039 ± 0.016
298.15 K, x1 = 0.4932 | 1.889 ± 0.015
298.15 K, x1 = 0.5131 | 1.773 ± 0.015
298.15 K, x1 = 0.5247 | 1.71 ± 0.014
298.15 K, x1 = 0.5389 | 1.629 ± 0.014
298.15 K, x1 = 0.5545 | 1.546 ± 0.014
298.15 K, x1 = 0.5728 | 1.45 ± 0.013
298.15 K, x1 = 0.5972 | 1.348 ± 0.013
298.15 K, x1 = 0.612 | 1.272 ± 0.013
298.15 K, x1 = 0.6459 | 1.141 ± 0.012
298.15 K, x1 = 0.6823 | 1.009 ± 0.012
298.15 K, x1 = 0.7149 | 0.909 ± 0.012
298.15 K, x1 = 0.7429 | 0.819 ± 0.011
298.15 K, x1 = 0.7801 | 0.734 ± 0.011
298.15 K, x1 = 0.8099 | 0.672 ± 0.011
298.15 K, x1 = 0.8367 | 0.622 ± 0.011
298.15 K, x1 = 0.876 | 0.559 ± 0.011
298.15 K, x1 = 0.9139 | 0.507 ± 0.011
298.15 K, x1 = 0.9562 | 0.455 ± 0.011
298.15 K, x2 = 0.0123 | 0.422 ± 0.01
308.15 K, x1 = 0.0706 | 3.806 ± 0.024
308.15 K, x1 = 0.107 | 3.567 ± 0.023
308.15 K, x1 = 0.2112 | 2.906 ± 0.019
308.15 K, x1 = 0.2927 | 2.434 ± 0.017
308.15 K, x1 = 0.3502 | 2.124 ± 0.016
308.15 K, x1 = 0.3903 | 1.904 ± 0.015
308.15 K, x1 = 0.4235 | 1.762 ± 0.015
308.15 K, x1 = 0.4744 | 1.536 ± 0.014
308.15 K, x1 = 0.5101 | 1.397 ± 0.019
308.15 K, x1 = 0.5124 | 1.388 ± 0.019
308.15 K, x1 = 0.5273 | 1.333 ± 0.013
308.15 K, x1 = 0.5473 | 1.254 ± 0.013
308.15 K, x1 = 0.5733 | 1.164 ± 0.012
308.15 K, x1 = 0.5957 | 1.094 ± 0.012
308.15 K, x1 = 0.6126 | 1.033 ± 0.012
308.15 K, x1 = 0.6337 | 0.973 ± 0.012
308.15 K, x1 = 0.6691 | 0.873 ± 0.011
308.15 K, x1 = 0.6936 | 0.817 ± 0.011
308.15 K, x1 = 0.7266 | 0.741 ± 0.011
308.15 K, x1 = 0.7759 | 0.645 ± 0.011
308.15 K, x1 = 0.8235 | 0.567 ± 0.011
308.15 K, x1 = 0.8612 | 0.513 ± 0.011
308.15 K, x1 = 0.9001 | 0.465 ± 0.011
308.15 K, x1 = 0.9538 | 0.407 ± 0.01
318.15 K, x1 = 0.0663 | 3.159 ± 0.021
318.15 K, x1 = 0.1607 | 2.659 ± 0.018
318.15 K, x1 = 0.2747 | 2.102 ± 0.016
318.15 K, x1 = 0.3487 | 1.774 ± 0.015
318.15 K, x1 = 0.4227 | 1.477 ± 0.013
318.15 K, x1 = 0.4685 | 1.326 ± 0.013
318.15 K, x1 = 0.504 | 1.204 ± 0.012
318.15 K, x1 = 0.5407 | 1.097 ± 0.012
318.15 K, x1 = 0.5754 | 1.006 ± 0.012
318.15 K, x1 = 0.6027 | 0.936 ± 0.012
318.15 K, x1 = 0.6281 | 0.877 ± 0.011
318.15 K, x1 = 0.6529 | 0.814 ± 0.011
318.15 K, x1 = 0.6898 | 0.743 ± 0.011
318.15 K, x1 = 0.7214 | 0.681 ± 0.011
318.15 K, x1 = 0.7581 | 0.617 ± 0.011
318.15 K, x1 = 0.8025 | 0.549 ± 0.011
318.15 K, x1 = 0.8554 | 0.475 ± 0.011
318.15 K, x1 = 0.9198 | 0.402 ± 0.01
318.15 K, x1 = 0.9672 | 0.359 ± 0.01

CN1CCCC1=O + CC(C)O
298.15 K, 101 kPa
Details | viscosity [mPa·s]
x1 = 0.0609 | 1.8 ± 0.018
x1 = 0.1034 | 1.703 ± 0.017
x1 = 0.1399 | 1.641 ± 0.016
x1 = 0.1993 | 1.57 ± 0.015
x1 = 0.2332 | 1.539 ± 0.015
x1 = 0.3074 | 1.5 ± 0.015
x1 = 0.3626 | 1.454 ± 0.014
x1 = 0.4127 | 1.45 ± 0.014
x1 = 0.4612 | 1.481 ± 0.015
x1 = 0.5022 | 1.488 ± 0.015
x1 = 0.5599 | 1.497 ± 0.015
x1 = 0.6107 | 1.511 ± 0.015
x1 = 0.6683 | 1.53 ± 0.015
x1 = 0.7081 | 1.543 ± 0.015
x1 = 0.7567 | 1.561 ± 0.015
x1 = 0.794 | 1.579 ± 0.015
x1 = 0.8562 | 1.608 ± 0.016
x1 = 0.9199 | 1.633 ± 0.016

COC(=O)CCCCC(=O)OC + CCC(C)=O
100 kPa
Details | viscosity [mPa·s]
308.15 K, x1 = 0.2002 | 0.5865 ± 0.0081
318.15 K, x1 = 0.3002 | 0.6465 ± 0.0083
323.15 K, x1 = 0.4004 | 0.7425 ± 0.0086

CCC(=O)CC + CCCCOC(C)=O
viscosity [mPa·s], 101 kPa
Details | x2 = 0.0808 | x2 = 0.1652 | x2 = 0.2542 | x2 = 0.349 | x2 = 0.4451 | x2 = 0.5459 | x2 = 0.65 | x2 = 0.7613 | x2 = 0.8771
298.15 K | 0.478 ± 0.006 | 0.5 ± 0.007 | 0.523 ± 0.007 | 0.543 ± 0.008 | 0.558 ± 0.008 | 0.573 ± 0.008 | 0.59 ± 0.009 | 0.614 ± 0.009 | 0.645 ± 0.01
303.15 K | 0.445 ± 0.006 | 0.464 ± 0.006 | 0.485 ± 0.007 | 0.5 ± 0.007 | 0.513 ± 0.007 | 0.526 ± 0.008 | 0.541 ± 0.008 | 0.562 ± 0.008 | 0.589 ± 0.009
308.15 K | 0.419 ± 0.006 | 0.437 ± 0.006 | 0.455 ± 0.006 | 0.471 ± 0.007 | 0.483 ± 0.007 | 0.495 ± 0.007 | 0.509 ± 0.007 | 0.528 ± 0.008 | 0.554 ± 0.008
313.15 K | 0.395 ± 0.005 | 0.411 ± 0.006 | 0.429 ± 0.006 | 0.441 ± 0.006 | 0.452 ± 0.006 | 0.461 ± 0.007 | 0.474 ± 0.007 | 0.491 ± 0.007 | 0.514 ± 0.008
